According to patent US12139481B2, “Compositions comprising macrocycle derivatives incorporating bridged macrocycles and methods of producing and using same” (Southwestern Oklahoma State University, priority 2015, dated 2024):

Legend:
[1] = tested on: S. mansoni newly transformed schistosomula (NTS); experiment: In vitro testing on Schistosoma mansoni newly transformed schistosomula (NTS), viability score; type: cell-based; settings: NTS S. mansoni, 33 μM, 72 h
In short: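 Mechanically transformed S. mansoni (Liberian strain) NTS, cultured overnight, exposed at 100 per well to compound (from 10 mM DMSO stock; ≤1% DMSO controls) at 37 °C, 5% CO2 for 72 h. Viability scored microscopically from 3 (normal activity, intact tegument) to 0 (dead, granulated).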

[2] = tested on: Plasmodium falciparum D6 clone (Sierra Leon, chloroquine-sensitive); experiment: In vitro antimalarial assay, chloroquine-sensitive D6 clone; type: cell-based; settings: D6 clone; for IC50: converted with molecular weight, read-out: P. falciparum D6 IC50; for X more potent than chloroquine: molar IC50 ratio versus chloroquine
Experimental: (§1) The compounds were assayed for in vitro antimalarial activity against the W2 clone and D6 clone of the pathogenic Plasmodium falciparum. The strains of P. falciparum were obtained from the Division of Experimental Therapeutics, Walter Reed Army Institute of Research, Washington D.C. Strains of Sierra Leon D6 and Indochina W2 are chloroquine-sensitive and chloroquine-resistant, respectively. The parasite was grown in type A human RBCs and, two strains subcultured daily with fresh medium and blood cells. On the day of the assay, a suspension of infected blood cells (2% parasitemia and 2% hematocrit) was prepared using type A human red blood cells. Assays were performed by standard 96-well flat-bottomed microplate methods and done in duplicate at different concentrations. IC50 values were obtained from the dose curves. Artemisinin and chloroquine were included in each assay as the drug controls, and DMSO was used as vehicle control. The whole protocol was developed based on the published method of Makler. The cytotoxicity assays were also performed in parallel against the Vero cells, and the selectivity index was measured. A selectivity index of >9 was considered to indicate a lead for further development of antimalarial drug.

[3] = tested on: L. donovani promastigotes; experiment: Antileishmanial Alamar Blue assay on promastigotes; type: cell-based, Leishmania donovani; settings: for X more potent than Pentamidine: L. donovani, ratio of molar IC50 to Pentamidine; for L. donovani IC50 / IC50: promastigotes, 48 hours, Alamar Blue; for IC50: read-out: L. donavani IC50
In short: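 L. donovani promastigotes in RPMI 1640 with 10% FCS, from 3-day culture, were set at 5×10^5/mL and exposed to compound (50-3.1 μg/mL) for 48 hours at 26° C. Growth read by Alamar Blue fluorescence (ex 544/em 590 nm); IC50 from percent growth versus concentration.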

[4] = tested on: Plasmodium falciparum W2 clone (Indochina, chloroquine-resistant); experiment: In vitro antimalarial assay, chloroquine-resistant W2 clone; type: cell-based; settings: W2 clone; for IC50: converted with molecular weight, read-out: P. falciparum W2 IC50; for X more potent than chloroquine: molar IC50 ratio versus chloroquine
Experimental: as §1

C. krusei ATCC 6258 = experiment: Antifungal broth dilution assay against C. krusei (modified CLSI); type: cell-based, Candida krusei; settings: for C. krusei IC50 / IC50: in vitro; for IC50: read-out: C. krusei IC50 (mol/L)
In short: (§2)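 Modified CLSI broth microdilution with OD monitoring before and after incubation at 35 °C: Candida in RPMI 1640/MOPS pH 6.0, 1.5×10^3 CFU/ml, 46-50 h; Staphylococcus in cation-adjusted Mueller-Hinton pH 7.3, 5.0×10^5 CFU/ml, 16-20 h. IC50 from curve fit; MIC is the lowest concentration with no growth; MFC/MBC from subculture.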

[5] = tested on: methicillin-resistant S. aureus ATCC 33591 (MRS); experiment: Antibacterial broth dilution assay against MRSA (modified CLSI); type: cell-based, Staphylococcus aureus; settings: for MRSa IC50 / IC50: in vitro; for IC50: converted with molecular weight; for X more potent than ciprofloxacen: molar IC50 ratio versus ciprofloxacen
Experimental: General Experimental Procedures. All organisms were obtained from the American Type Culture Collection (Manassas, VA) and include the fungi Candida albicans ATCC 90028, C. glabrata ATCC 90030, C. krusei ATCC 6258, and Cryptococcus neoformans ATCC 90113, and the bacteria Staphylococcus aureus ATCC 29213 and methicillin-resistant S. aureus ATCC 33591 (MRS). All organisms were tested using modified versions of the CLSI (formerly NCCLS) methods. For all organisms, optical density was used to monitor growth (NCCLS, Reference Method for Broth Dilution Antifungal Susceptibility Testing of Yeasts; Approved Standard M27-A2. National Committee on Clinical Laboratory Standards, 2002 22 (15); and NCCLS, Methods for Dilution Antimicrobial Susceptibility Tests for Bacteria that Grow Aerobically; Approved Standard, Seventh Edition M7-A7. National Committee on Clinical Laboratory Standards, 2006. 26(2)).
Samples (dissolved in DMSO) were serially-diluted in 20% DMSO/saline and transferred (10 μL) in duplicate to 96 well flat bottom microplates. Inocula were prepared by correcting the OD630 of microbe suspensions in incubation broth [RPMI 1640/0.2% dextrose/0.03% glutamine/MOPS @ pH 6.0 (Cellgro) for Candida spp., Sabouraud Dextrose for C. neoformans, and cation-adjusted Mueller-Hinton (Difco) @ pH 7.3 for Staphylococcus spp. to afford an assay volume of […] and final target inocula of: Candida spp. and C. neoformans: 1.5×10^3, and Staphylococcus spp.: 5.0×10^5 CFU/ml. Final sample test concentrations were 1/100th the DMSO stock concentration. […] All organisms were read at either 530 nm using the Biotek Powerwave XS plate reader (Bio-Tek Instruments, Vermont) prior to and after incubation: Candida spp. at 35° C. for 46-50 h, Staphylococcus spp. at 35° C. for 16-20 h, and C. neoformans at 35° C. for 70-74 h. IC50s (concentrations that afford 50% inhibition relative to controls) were calculated using XLfit 4.2 software (IDBS, Alameda, CA) using fit model 201. The MIC is defined as the lowest test concentration that allows no detectable growth. Minimum fungicidal or bactericidal concentrations were determined by removing 5 μl from each clear (or blue) well, transferring to fresh media, and incubating as previously mentioned. The MFC/MBC is defined as the lowest test concentration that kills the organism (allows no growth).
Primary Analysis. Samples were tested in duplicate at one test concentration (50 μg/mL), and percent inhibitions were calculated relative to blank and growth controls. Samples showing 50% inhibition in at least one test organism were selected for dose response (Secondary) studies.
Secondary Analysis. Extracts from the Primary Assay, and first-run pure compounds and column fractions were tested in duplicate at 3 test concentrations (5-fold dilutions). Samples dissolved to 20 mg/mL in DMSO were tested at 200, 40, and 8 μg/mL. Samples dissolved to 2 mg/mL in DMSO were tested at 20, 4, and 0.8 μg/mL.

[6] = tested on: Staphylococcus aureus ATCC 29213; experiment: Antibacterial broth dilution assay against S. aureus (modified CLSI); type: cell-based; settings: for S. aureus IC50 / IC50: in vitro; for IC50: converted with molecular weight; for X more potent than ciprofloxacen: molar IC50 ratio versus ciprofloxacen
In short: as §2

[7] = tested on: Cryptococcus neoformans ATCC 90113; experiment: Antimicrobial microdilution assay against Cryptococcus neoformans (modified CLSI/NCCLS, optical density); type: cell-based; settings: for X more potent than Amphotericin B: C. neoformans, ratio of molar IC50 to Amphotericin B; for C. neoformans IC50 / IC50: in vitro, C. neoformans ATCC 90113; for IC50: read-out: C. neoformans IC50 (mol/L)
In short: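 Broth microdilution (modified CLSI) in RPMI pH 6.0, samples serially diluted in 20% DMSO/saline and tested in duplicate, growth followed by OD630 before and after incubation. MFC is the lowest concentration giving no growth when 5 μL from clear wells is plated on agar.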

C. glabrata ATCC 90030 = experiment: Antifungal broth dilution assay against C. glabrata (modified CLSI); type: cell-based, Candida glabrata; settings: for C. glabrata IC50 / IC50: in vitro; for IC50: converted with molecular weight; for X more potent than Amphotericin B: molar IC50 ratio versus amphotericin B
In short: as §2

Row | SMILES | Effect at 72 h (%) [1] | P. falciparum D6 IC50 [2] | IC50 [2] | X more potent than chloroquine [2] | X more potent than Pentamidine [3] | L. donovani IC50 [3] | IC50 [3] | P. falciparum W2 IC50 [4] | IC50 [4] | X more potent than chloroquine [4] | MRSa IC50 [5] | IC50 [5] | X more potent than ciprofloxacen [5] | S. aureus IC50 [6] | IC50 [6] | X more potent than ciprofloxacen [6] | X more potent than Amphotericin B [7] | C. neoformans IC50 [7] | C. glabrata IC50 (C. glabrata ATCC 90030) | IC50 (C. glabrata ATCC 90030) | other results
1 | CC(=O)[O-].F[P-](F)(F)(F)(F)F.[Ni+2].c1ccc(CN2CCCN3CCN(CCCN(Cc4ccccc4)CC3)CC2)cc1 [TC09, [Ni(Bn2Bcyclam)(OAc)]PF6] | 43.24% | 0.552 µg/mL | 0.825 µM | 0.04 | 0.55 | 6.51 µg/mL | 9.73 µM | 0.8876 µg/mL | 1.33 µM | 0.51 |  |  |  |  |  |  |  |  |  |  | X more potent than Amphotericin B (C. krusei ATCC 6258; C. krusei, ratio of molar IC50 to amphotericin B): 0.22; C. krusei IC50 (C. krusei ATCC 6258): 4.520 µg/mL; IC50 (C. krusei ATCC 6258): 6.75 µM
2 | [Cl-].[Cl-].[Mn+2].c1ccc(CN2CCCN3CCN(CCCN(Cc4ccccc4)CC3)CC2)cc1 [NS06, Mn(Bn2Bcyclam)Cl2] | 81.08% | 0.0838 µg/mL | 0.157 µM | 0.23 | 0.13 | 21.99 µg/mL | 41.3 µM | 0.0674 µg/mL | 0.127 µM | 5.36 | 1.510 µg/mL | 2.84 µM | 0.07 | 2.310 µg/mL | 4.34 µM | 0.06 |  |  |  |  | 
3 | CC(=O)[O-].CC(=O)[O-].CN1CCCN2CCN(CCCN(Cc3cccc(CN4CCCN5CCN(C)CCCN(CC5)CC4)c3)CC2)CC1.F[P-](F)(F)(F)(F)F.F[P-](F)(F)(F)(F)F.[Zn+2].[Zn+2] [RM51, [Zn2(m-CB-Cyclams)(OAc)2][PF6]2] | 0.00% |  |  |  | 0.30 | 19.82 µg/mL |  |  |  |  | 3.190 µg/mL |  | 0.07 | 6.17 µg/mL |  | 0.05 | 0.14 | 1.850 µg/mL |  |  | 
4 | CC(=O)[O-].CC(=O)[O-].CN1CCCN2CCN(CCCN(Cc3cccc(CN4CCCN5CCN(C)CCCN(CC5)CC4)c3)CC2)CC1.F[P-](F)(F)(F)(F)F.F[P-](F)(F)(F)(F)F.[Ni+2].[Ni+2] [CDG009, [Ni2(m-CB-Cyclams)(OAc)2][PF6]2] | 0.00% |  |  |  |  |  |  |  |  |  | 5.410 µg/mL | 4.88 µM | 0.04 | 6.27 µg/mL | 5.66 µM | 0.05 | 0.07 | 3.530 µg/mL | 5.150 µg/mL | 4.65 µM | X more potent than Amphotericin B (C. glabrata ATCC 90030): 0.31; IC50 [7]: 3.19 µM
5 | CC(=O)[O-].CC(=O)[O-].CC(=O)[O-].CN1CCN2CCN(CC1)CCN(Cc1cc(CN3CCN4CCN(C)CCN(CC4)CC3)cc(CN3CCN4CCN(C)CCN(CC4)CC3)c1)CC2.F[P-](F)(F)(F)(F)F.F[P-](F)(F)(F)(F)F.F[P-](F)(F)(F)(F)F.F[P-](F)(F)(F)(F)F.F[P-](F)(F)(F)(F)F.F[P-](F)(F)(F)(F)F.[Co+3].[Co+3].[Co+3] [BNS20, [Co3(tris-CB-Cyclens)(OAc)3][PF6]6] | 18.02% |  |  |  |  |  |  |  |  |  |  |  |  |  |  |  | 0.47 | 1.000 µg/mL | 4.720 µg/mL | 2.39 µM | X more potent than Amphotericin B (C. glabrata ATCC 90030): 0.59; C. krusei IC50 (C. krusei ATCC 6258): 0.980 µg/mL; IC50 (C. krusei ATCC 6258): 0.496 µM; IC50 [7]: 0.506 µM
6 | [Cl-].[Cl-].[Mn+2].c1ccc(CN2CCN3CCN(CC2)CCN(Cc2ccccc2)CC3)cc1 [NS29, Mn(Bn2Bcyclen)Cl2] | 43.24% | 0.1337 µg/mL | 0.265 µM | 0.14 | 0.35 | 7.70 µg/mL | 15.3 µM | 0.2747 µg/mL | 0.545 µM | 1.25 | 5.750 µg/mL | 11.4 µM | 0.02 | 5.880 µg/mL | 11.7 µM | 0.02 |  |  |  |  | 
7 | CN1CCCN2CCN(CCCN(Cc3ccc(CN4CCCN5CCN(C)CCCN(CC5)CC4)cc3)CC2)CC1.[Cl-].[Cl-].[Cl-].[Cl-].[Mn+2].[Mn+2] [JGL16A] | 5.41% | 0.7989 µg/mL | 0.957 µM | 0.04 |  |  |  | 0.8002 µg/mL | 0.959 µM | 0.71 | 7.770 µg/mL | 9.31 µM | 0.02 | 8.090 µg/mL | 9.69 µM | 0.03 |  |  | 18.600 µg/mL | 22.3 µM | X more potent than Amphotericin B (C. glabrata ATCC 90030): 0.06
